This is an account of results in US9580395B2, “Compositions of dual thyrointegrin antagonists and use in vascular-associated disorders” (Vascular Vision Pharmaceutical Company, priority 2009, dated 2017).

The subject of series [1] is angiogenesis-induced by the growth factor basic fibroblast growth factor (FGF). Nature of the series: Inhibition of FGF-induced angiogenesis in the chick chorioallantoic membrane (CAM) model. Format: in vivo. The settings on record: Gallus gallus; for inhibition at 0.25 µg/mL: FGF + compound 0.25 μg/ml; for inhibition at 250 µg/mL: 10 μl at 0.25 mg/ml added to FGF impregnated filter. The protocol: To investigate the structure-activity relationships of novel dual Thyrointegrin inhibitors of the present invention, the effect of each compound on angiogenesis-induced by the growth factor basic fibroblast growth factor (FGF) was assessed in the CAM model as depicted in Table 1.
The data in Table 1 represents a mean±standard deviation (SD), n=8 as compared to FGF alone (p<0.001; 10 μl from the different test compounds were added to the FGF impregnated sterile filter).
The CAM system is a widely-used model in which the chick embryonic membrane is exposed to stimulatory and inhibitory compounds. Ten day-old fertilized chicken eggs (Sunrise Farms Inc, Catskill, N.Y.) were incubated at 37° C. and 55% relative humidity. In the dark, with the help of a candling lamp, a small hole was punctured in the area of the shell covering the air sac using a hypodermic needle. A second hole was punctured on the wider side of the egg above an avascular area of the embryonic membrane. An artificial air sac was created below the second hole by gently applying a vacuum to the first hole using a small rubber squeeze bulb. The vacuum caused the separation of the CAM from the shell. A window of approximately 1.0 cm^2 was cut in the shell over the dropped CAM with the use of a mini drill. The underlying CAM was accessed through this small window. Filter disks were punched from filter paper #1 (Whatman International, Ltd, United Kingdom), and then soaked in 3.0 mg/mL cortisone acetate solution (in 95% ethanol) and air-dried under sterile conditions. To induce angiogenesis, sterile filter disks were saturated with FGF and placed on the CAM using sterile forceps. As a control, disks were saturated with PBS without calcium or magnesium. The window was sealed with Highland Brand transparent tape. After 1 hour, 10 μL of inhibitor were applied topically to the FGF-stimulated CAM. After 48 hours, CAM tissue directly beneath the filter disk was harvested and placed in a 35-mm petri dish for evaluation of angiogenesis. Eight eggs were used per treatment.
Digital Imaging and analysis: CAMs in petri dishes were examined using a SV6 stereomicroscope (Carl Zeiss Microlmaging, Inc) at 50× magnification. Digital images were captured using a 3-CCD color video camera system (Toshiba America, Inc, New York, N.Y.). The images were analyzed using Image-Pro Plus (Media Cybernetics, Inc). The number of branch points within a circular region superimposed on the area of the filter disk was counted for each treatment condition.

Series [2] concerns the target cell surface receptor αvβ3 (Homo sapiens, UniProt P05106+P06756). The settings on record: literature (Rebbaa et al. 2008); cited from earlier work.
For the next series, the target named is αvβ3 (Homo sapiens, UniProt P05106+P06756). Nature of the series: Inhibition of αvβ3-mediated binding in a specific cell adhesion assay. Format: cell-based. As to conditions: at 100 nM.
The mark [3] stands for this setting: 10 μl on FGF filter, mean ± SD, n=8, vs FGF alone.
Where [4] appears, read: post-ester hydrolysis to make the free acid.

Sequence of αvβ3 (P06756 31-889 limits assumed): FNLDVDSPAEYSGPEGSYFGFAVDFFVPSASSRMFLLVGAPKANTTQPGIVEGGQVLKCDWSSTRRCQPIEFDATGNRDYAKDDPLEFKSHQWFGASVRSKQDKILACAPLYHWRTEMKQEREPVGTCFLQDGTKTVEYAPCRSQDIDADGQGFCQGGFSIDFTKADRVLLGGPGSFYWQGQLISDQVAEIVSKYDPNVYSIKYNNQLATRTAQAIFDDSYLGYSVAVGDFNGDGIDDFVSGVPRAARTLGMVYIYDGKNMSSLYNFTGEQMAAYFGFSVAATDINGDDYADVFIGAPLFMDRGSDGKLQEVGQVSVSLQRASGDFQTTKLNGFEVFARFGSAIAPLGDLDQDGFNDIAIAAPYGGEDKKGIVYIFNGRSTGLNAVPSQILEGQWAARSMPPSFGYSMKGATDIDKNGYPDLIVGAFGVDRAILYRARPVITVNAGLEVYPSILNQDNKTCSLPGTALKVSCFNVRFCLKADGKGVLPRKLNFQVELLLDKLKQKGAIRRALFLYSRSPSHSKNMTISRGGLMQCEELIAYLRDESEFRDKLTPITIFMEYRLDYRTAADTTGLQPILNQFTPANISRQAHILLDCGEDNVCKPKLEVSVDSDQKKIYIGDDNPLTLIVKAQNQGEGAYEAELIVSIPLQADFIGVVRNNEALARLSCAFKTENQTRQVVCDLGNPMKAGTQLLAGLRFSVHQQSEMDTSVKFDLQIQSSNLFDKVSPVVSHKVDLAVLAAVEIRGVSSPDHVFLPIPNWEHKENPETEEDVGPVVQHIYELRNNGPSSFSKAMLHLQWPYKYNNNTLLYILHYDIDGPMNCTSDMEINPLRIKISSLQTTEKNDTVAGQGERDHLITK
Sequence of αvβ3 (P06756 891-1048 partner limits assumed): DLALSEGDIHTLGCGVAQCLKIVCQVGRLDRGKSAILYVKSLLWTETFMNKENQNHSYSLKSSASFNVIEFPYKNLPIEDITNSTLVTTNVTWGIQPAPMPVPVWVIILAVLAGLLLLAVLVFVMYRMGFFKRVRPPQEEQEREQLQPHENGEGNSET
Sequence of αvβ3 (P05106 27-788): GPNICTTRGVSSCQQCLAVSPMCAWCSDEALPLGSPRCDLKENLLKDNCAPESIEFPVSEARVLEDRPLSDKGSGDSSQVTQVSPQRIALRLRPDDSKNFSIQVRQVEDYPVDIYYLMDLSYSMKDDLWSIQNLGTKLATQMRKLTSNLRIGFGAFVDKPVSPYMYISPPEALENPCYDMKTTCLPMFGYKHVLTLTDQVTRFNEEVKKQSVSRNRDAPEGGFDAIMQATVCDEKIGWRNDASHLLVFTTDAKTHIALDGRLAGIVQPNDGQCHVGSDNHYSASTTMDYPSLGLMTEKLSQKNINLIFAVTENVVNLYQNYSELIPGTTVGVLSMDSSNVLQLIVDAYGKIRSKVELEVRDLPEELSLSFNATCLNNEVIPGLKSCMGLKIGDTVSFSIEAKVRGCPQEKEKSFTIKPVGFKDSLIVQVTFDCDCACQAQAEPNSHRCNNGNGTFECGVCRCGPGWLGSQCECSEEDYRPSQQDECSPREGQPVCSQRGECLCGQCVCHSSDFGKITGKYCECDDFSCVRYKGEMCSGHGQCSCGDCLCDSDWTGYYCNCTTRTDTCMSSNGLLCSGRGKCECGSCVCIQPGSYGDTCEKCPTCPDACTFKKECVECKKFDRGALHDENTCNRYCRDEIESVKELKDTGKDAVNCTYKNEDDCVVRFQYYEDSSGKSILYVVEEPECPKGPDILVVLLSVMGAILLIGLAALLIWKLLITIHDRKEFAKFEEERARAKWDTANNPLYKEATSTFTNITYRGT
Sequence of cell surface receptor αvβ3 (P06756 31-889 limits assumed): as the sequence (P06756 31-889 limits assumed) above
Sequence of cell surface receptor αvβ3 (P06756 891-1048 partner limits assumed): as the sequence (P06756 891-1048 partner limits assumed) above
Sequence of cell surface receptor αvβ3 (P05106 27-788): as the sequence (P05106 27-788) above

As for `O=C(O)Cc1cc(I)c(Oc2cc(I)c(O)c(I)c2)c(I)c1` [Tetrac, [4-(4-Hydroxy-3,5-diiodophenoxy)-3,5-diiodophenyl]acetic acid, reference compound], in series [1] (FGF + compound 10 μg/ml, 10 μl on FGF filter, mean ± SD, n=8, vs FGF alone), the inhibition – broadly, the percentage by which the read-out fell short of the control – at 10 µg/mL came out at 85 ± 11%. Also, the “affinity of binding to αvβ3” value in series [2] was “weak affinity”.
Turning to `NC(N)=NCCOc1c(I)cc(Oc2c(I)cc(CC(=O)[O-])cc2I)cc1I.[Li+]` [compound 21, Lithium [4-(4-{2-[(diaminomethylene)amino]ethoxy}-3,5-diiodophenoxy)-3,5-diiodophenyl]acetate], the melting point (as a rule, the temperature, or range, at which the solid turns liquid) is 133 °C. Moreover, the inhibition at 0.25 µg/mL in series [1] (setting [3]) worked out at 75 ± 10%.
On the same counts, the results for `NC(=O)NCCOc1c(I)cc(Oc2c(I)cc(CC(=O)O)cc2I)cc1I` [compound 22, (4-{4-[2-(Carbamoylamino)ethoxy]-3,5-diiodophenoxy}-3,5-diiodophenyl)acetic acid] are 267 °C and 74 ± 13%.
With `NCCCOc1c(I)cc(Oc2c(I)cc(CC(=O)O)cc2I)cc1I` [compound 23, {4-[4-(3-aminopropoxy)-3,5-diiodophenoxy]-3,5-diiodophenyl}acetic acid], in series [1] (setting [3]), the inhibition at 0.25 µg/mL worked out at 88 ± 11%.
Take `CC(C)(C)OC(=O)NCCCOc1c(I)cc(Oc2c(I)cc(CC(=O)O)cc2I)cc1I` [compound 30]: at αvβ3, the inhibition at 0.1 µM came to 66 ± 8%. The same molecule displayed an inhibition at 250 µg/mL in series [1] of 75 ± 7%.
In the same order, the values of `COC(=O)Cc1cc(I)c(Oc2cc(I)c(OCCCN)c(I)c2)c(I)c1` [compound 31] are 0% and 0%.
As for `NCCCOc1c(I)cc(Oc2c(I)cc(CC(=O)O)cc2I)cc1I` [compound 32], 0.1 µM produced 100% inhibition on αvβ3 (setting [4]). For the same molecule, in series [1] (setting [4]), the inhibition at 250 µg/mL is 88 ± 8%.
`COC(=O)Cc1cc(I)c(Oc2cc(I)c(OCCCNCc3cccnc3)c(I)c2)c(I)c1` [compound 33]: testing at 0.1 µM at αvβ3 gave an inhibition of 0%. The inhibition at 250 µg/mL in series [1] was determined as 0%.
As to `O=C(O)Cc1cc(I)c(Oc2cc(I)c(OCCCNCc3cccnc3)c(I)c2)c(I)c1` [compound 34], testing at 0.1 µM on αvβ3 (setting [4]) gave an inhibition of 68 ± 7%. Further, in series [1] (setting [4]), 250 µg/mL produced 95 ± 11% inhibition.
Regarding `COC(=O)Cc1cc(I)c(Oc2cc(I)c(OCCCN3CCSCC3)c(I)c2)c(I)c1` [compound 35], at 0.1 µM the inhibition on αvβ3 was 0%. The molecule also came in with an inhibition at 250 µg/mL in series [1] of 0%.
As to `O=C(O)Cc1cc(I)c(Oc2cc(I)c(OCCCN3CCSCC3)c(I)c2)c(I)c1` [compound 36], the inhibition at 0.1 µM at αvβ3 (setting [4]) amounted to 93 ± 8%. At 250 µg/mL the inhibition in series [1] (setting [4]) was 89 ± 10%.
For `CCN(CC)CCCOc1c(I)cc(Oc2c(I)cc(CC(=O)OC)cc2I)cc1I` [compound 37], the results for the inhibition at 0.1 µM on αvβ3 and on αvβ3 (setting [4]) were 1% and 100%, respectively. Further, the inhibition at 250 µg/mL in series [1] worked out at 0%; in series [1] (setting [4]), 83%.
